Source: ChEMBL document CHEMBL3243930 (J Med Chem, 1979)
≈ marks a conversion by molar mass, not a printed value.

Columns and labels:
[1] = Inhibition of pigeon liver dihydrofolate reductase; set-up: species or system Columba livia; settings: read-out: I50
KB [2] = test: Cytotoxicity against human KB cells; format: functional; settings: read-out: ED50 (the source's name)
L1210 [3] = test: Antitumor activity against mouse L1210 cells […] in mouse assessed as increase in life span at 200 mg/kg, ip qd administered on day 2 and day 6 relative to control; format: functional; settings: route intraperitoneal
[4] = Dissociation constant, pKa of the compound; format: physicochemical
Columba livia = test: Potency index, ratio of I50 for MTX to I50 for compound against pigeon liver dihydrofolate reductase
KB [5] = test: Potency index, ratio of ED50 for MTX to ED50 for compound against human KB cells; format: functional
L1210 [6] = test: Antitumor activity against mouse L1210 cells […] in mouse assessed as increase in life span at 100 mg/kg, ip qd from day 1 to day 9 relative to control; format: functional; settings: route intraperitoneal
L1210 [7] = test: Antitumor activity against mouse L1210 cells […] in mouse assessed as increase in life span at 200 mg/kg, ip qd from day 1 to day 9 relative to control; format: functional; settings: route intraperitoneal
L1210 [8] = test: Antitumor activity against mouse L1210 cells […] in mouse assessed as increase in life span at 50 mg/kg, ip qd from day 1 to day 9 relative to control; format: functional; settings: route intraperitoneal
L1210 [9] = test: Antitumor activity against mouse L1210 cells […] in mouse assessed as increase in life span at 0.44 mg/kg, ip qd from day 1 to day 9 relative to control; format: functional; settings: route intraperitoneal
L1210 [10] = test: Antitumor activity against mouse L1210 cells […] in mouse assessed as increase in life span at 1.3 mg/kg, ip qd from day 1 to day 9 relative to control; format: functional; settings: route intraperitoneal
[11] = Cytotoxicity against human Hep2 cells; format: functional; settings: HEp-2, read-out: ED50 (the source's name)
HEp-2 = test: Potency index, ratio of ED50 for MTX to ED50 for compound against human Hep2 cells; format: functional
L1210 [12] = test: Antitumor activity against mouse L1210 cells […] in mouse assessed as increase in life span at 500 mg/kg, ip qd from day 1 to day 9 relative to control; format: functional; settings: route intraperitoneal
L1210 [13] = test: Antitumor activity against mouse L1210 cells […] in mouse assessed as increase in life span at 25 mg/kg, ip qd from day 1 to day 9 relative to control; format: functional; settings: route intraperitoneal
L1210 [14] = test: Antitumor activity against mouse L1210 cells […] in mouse assessed as increase in life span at 1.5 mg/kg, ip qd from day 1 to day 9 relative to control; format: functional; settings: route intraperitoneal
L1210 [15] = test: Antitumor activity against mouse L1210 cells […] in mouse assessed as increase in life span at 10 mg/kg, ip qd from day 1 to day 9 relative to control; format: functional; settings: route intraperitoneal
L1210 [16] = test: Antitumor activity against mouse L1210 cells […] in mouse assessed as increase in life span at 20 mg/kg, ip qd from day 1 to day 9 relative to control; format: functional; settings: route intraperitoneal
L1210 [17] = test: Antitumor activity against mouse L1210 cells […] in mouse assessed as increase in life span at 0.67 mg/kg, ip qd from day 1 to day 9 relative to control; format: functional; settings: route intraperitoneal

| Compound | IC50 [1] | EC50 (KB [2]) | Ratio (Columba livia) | Ratio ED50 (KB [5]) | further results |
| --- | --- | --- | --- | --- | --- |
| CN(Cc1cnc2nc(N)c(Br)c(N)c2n1)c1ccc(C(=O)N[C@@H](CCC(=O)O)C(=O)O)cc1 | 2500 nM | 76 µg/mL (≈ 143 µM) | 190 | 19000 | ILS at 200 mg/kg (L1210 [3]): 1%; pKa [4]: 5.1 |
| CCN(Cc1cnc2nc(N)nc(N)c2n1)c1c(Cl)cc(C(=O)N[C@@H](CCC(=O)O)C(=O)O)cc1Cl | 50 nM | 0.022 µg/mL (≈ 0.0409 µM) | 1.1 | 5.5 | ILS at 100 mg/kg (L1210 [6]): 70% |
| Nc1nc(N)c2nc(CNc3ccc(CC(=O)N[C@@H](CC(=O)O)C(=O)O)cc3)cnc2n1 | 1000 nM | > 100 µg/mL | 38 | – | ILS at 200 mg/kg (L1210 [7]): 29% |
| CN(Cc1ccc(C(=O)N[C@@H](CCC(=O)O)C(=O)O)cc1)Cc1cnc2nc(N)nc(N)c2n1 | 750 nM | 0.043 µg/mL (≈ 0.0918 µM) | 29 | 11 | ILS at 50 mg/kg (L1210 [8]): 36% |
| Nc1nc(N)c2nc(CNc3ccc(C(=O)N[C@@H](CCC(=O)O)C(=O)O)nc3)cnc2n1 | 30 nM | 0.006 µg/mL (≈ 0.0136 µM) | 1.2 | 1.5 | ILS at 0.44 mg/kg (L1210 [9]): 69% |
| Nc1nc(N)c2nc(CNc3ccc(C(=O)NCC(=O)O)cc3)cnc2n1 | 1100 nM | 88 µg/mL (≈ 239 µM) | 42 | 22000 | – |
| Nc1nc(N)c2nc(COc3ccc(C(=O)N[C@@H](CCC(=O)O)C(=O)O)cc3)cnc2n1 | 510 nM | 3.5 µg/mL (≈ 7.93 µM) | 20 | 875 | ILS at 1.3 mg/kg (L1210 [10]): 32% |
| CN(Cc1cnc2nc(N)cc(N)c2n1)c1ccc(C(=O)N[C@@H](CCC(=O)O)C(=O)O)cc1 | 63 nM | – | 4.8 | – | EC50 [11]: 0.05 µg/mL (≈ 0.11 µM); ILS at 100 mg/kg (L1210 [6]): 64%; Ratio ED50 (HEp-2): 13 |
| Nc1nc(N)c2nc(CN(c3ccccc3)c3ccc(C(=O)N[C@@H](CCC(=O)O)C(=O)O)cc3)cnc2n1 | 280 nM | 26 µg/mL (≈ 50.3 µM) | 11 | 6500 | – |
| Nc1nc(N)c2nc(CNc3ccc(CC(=O)N[C@@H](CCC(=O)O)C(=O)O)cc3)cnc2n1 | 380 nM | 41 µg/mL (≈ 90.2 µM) | 15 | 10000 | ILS at 500 mg/kg (L1210 [12]): 35% |
| Nc1nc(N)c2nc(CNc3ccc(CCC(=O)N[C@@H](CCC(=O)O)C(=O)O)cc3)cnc2n1 | 460 nM | 37 µg/mL (≈ 79 µM) | 33 | 9300 | ILS at 500 mg/kg (L1210 [12]): 1% |
| Nc1nc(N)c2nc(CNc3ccc(C(=O)NCCCC(=O)O)cc3)cnc2n1 | 380 nM | > 100 µg/mL | 15 | – | ILS at 25 mg/kg (L1210 [13]): 1% |
| CN(Cc1cnc2nc(N)nc(N)c2n1)c1ccc(C(=O)N[C@@H](CCC(=O)O)C(=O)O)cc1 [METHOTREXATE] | 26 nM | 0.004 µg/mL (≈ 0.0088 µM) | – | – | ILS at 1.5 mg/kg (L1210 [14]): 72% |
| Nc1nc(N)c2nc(CNc3ccc(S(=O)(=O)N[C@@H](CCC(=O)O)C(=O)O)cc3)cnc2n1 | 1100 nM | 45 µg/mL (≈ 94.4 µM) | 39 | 11000 | ILS at 100 mg/kg (L1210 [6]): 27% |
| CCN(Cc1cnc2nc(N)nc(N)c2n1)c1ccc(C(=O)N[C@@H](CCC(=O)O)C(=O)O)cc1 | 45 nM | 0.005 µg/mL (≈ 0.0107 µM) | 1 | 1.3 | ILS at 10 mg/kg (L1210 [15]): 117% |
| Nc1nc(N)c2nc(CNc3ccc(C(=O)NC(CCCCC(=O)O)C(=O)O)cc3)cnc2n1 (stereo unspecified) | 13 nM | 0.025 µg/mL (≈ 0.0534 µM) | 0.5 | 6.3 | ILS at 20 mg/kg (L1210 [16]): 57% |
| Nc1nc(N)c2nc(CNc3ccc(C(=O)N[C@@H](CCC(=O)O)C(=O)O)cc3)cnc2n1 [AMINOPTERIN] | 26 nM | 0.003 µg/mL (≈ 0.00681 µM) | 1 | 0.75 | ILS at 0.67 mg/kg (L1210 [17]): 74% |
| Nc1nc(N)c2nc(CN(Cc3ccccc3)c3ccc(C(=O)N[C@@H](CCC(=O)O)C(=O)O)cc3)cnc2n1 | 14000 nM | > 100 µg/mL | 310 | – | – |
| CN(CCCCC(=O)N[C@@H](CCC(=O)O)C(=O)O)Cc1cnc2nc(N)nc(N)c2n1 | 20000 nM | > 100 µg/mL | 770 | – | – |
| CN(Cc1cnc2nc(N)c([N+](=O)[O-])c(N)c2n1)c1ccc(C(=O)N[C@@H](CCC(=O)O)C(=O)O)cc1 | 38000 nM | > 100 µg/mL | 1400 | – | ILS at 200 mg/kg (L1210 [3]): 1%; pKa [4]: 4.3 |
